Data: ChEMBL document CHEMBL1140817, “Synthesis and anti-HIV activity of 2'-fluorine modified nucleoside phosphonates: analogs of GS-9148” (Bioorg Med Chem Lett, 2008)
pEC50: −log10 of the molar value.

Assays:
[1] = test system: Human immunodeficiency virus 1; test: Antiviral activity against HIV1 3B in MT2 cells; format: functional, organism-based; details: Human immunodeficiency virus 1, 3B
[2] = Cytotoxicity against human MT2 cells; format: cell-based

Row | Compound | pEC50 [1] | CC50 [2]
1 | O=c1[nH]cnc2c1ncn2[C@@H]1O[C@H](OCP(=O)(O)O)C=C1F | < 3.52 | 
2 | Nc1nc2c(ncn2[C@@H]2O[C@H](OCP(=O)(O)O)C=C2F)c(=O)[nH]1 | 4.76 | 700 µM
3 | Nc1nc(N)c2ncn([C@@H]3O[C@H](OCP(=O)(O)O)C=C3F)c2n1 | < 3.52 | 
4 | C[C@H](Cn1cnc2c(N)ncnc21)OCP(=O)(O)O [TENOFOVIR ANHYDROUS] | 5.44 | > 1000 µM

More lines, main results first:

Row | pEC50 [1] | Compound | CC50 [2]
5 | 4.91 | Nc1ncnc2c1ncn2[C@@H]1O[C@H](OCP(=O)(O)O)C=C1F [GS-9148] | > 1000 µM
6 | 3.55 | Nc1ncnc2c1ncn2[C@@H]1O[C@H](OCP(=O)(O)O)C[C@@H]1F | > 1000 µM
